Experimental data as given in US20200101176A1, “Small Highly Uniform Nanomedicine Compositions for Therapeutic, Imaging and Theranostic Applications” (THE REGENTS OF THE UNIVERSITY OF MICHIGAN, priority 2018, published 2020).

System: myocytes
Assay: PDT of heart tissue, cell death tracked by PI fluorescence
Conditions: in vivo
Source text: PI fluorescence is only from myocytes.
FIG. 25 are images showing an embodiment of a non-targeted PDT with Ce6, in accordance with the present inventions.
Turning to FIG. 15, there is shown that PI (a nuclear stain for dead cells) is only present in myocytes (3 different magnified areas).
Turning to FIG. 16, there is shown similar tissue sampling test as FIG. 15, but using non-targeted PDT.

In the case of chlorin e6 [Ce6], the “damage to vasculature / non-target cells after PDT (PI fluorescence)” value is reported as “vasculature damage” and the “damage to vasculature / non-target cells after PDT (PI fluorescence)” value (listed as untargeted Ce6) is reported as “kills everything”.
